In article PMC10146949, “Cytotoxicity Profiles and Neuroprotective Properties of the Novel Ifenprodil Analogues as Sigma Ligands” (Molecules, 2023):
In brackets after ≈: the same amount, converted by molar mass. Read-outs that look alike come from different tables or passages of the source.

Columns and labels:
S2R [1] = biological target: T1, S2R (Rattus norvegicus, UniProt Q5U3Y7); test: S2R radioligand binding assay, [3H]DTG, rat liver membranes
T1 construct: A few rat livers were homogenized in cold 0.32 M sucrose with a Potter-Elvehjem glass homogenizer; tissue ENVIGO RMS S.R.L., Udine, Italy (animals); host or cells: Sprague Dawley rat liver membranes
T1 sequence (Q5U3Y7 1-176): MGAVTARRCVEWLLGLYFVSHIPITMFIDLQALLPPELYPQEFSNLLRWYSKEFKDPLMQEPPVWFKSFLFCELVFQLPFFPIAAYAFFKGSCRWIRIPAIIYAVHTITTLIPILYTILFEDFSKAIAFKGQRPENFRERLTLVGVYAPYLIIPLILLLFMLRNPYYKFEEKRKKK

S1R [2] = biological target: T2, S1R (Cavia porcellus, UniProt Q60492); test: S1R radioligand binding assay, [3H](+)-pentazocine, guinea pig brain cortex homogenates; conditions: for S2R/S1R selectivity ratio: ratio of Ki S2R to Ki S1R
T2 construct: Fresh guinea pig brain cortex was homogenized in ice-cold Tris (50 mM, pH 7.4); tissue ENVIGO RMS S.R.L., Udine, Italy (animals); host or cells: male Dunkin-Hartley guinea pig brain cortex membranes
T2 sequence (Q60492 whole entry): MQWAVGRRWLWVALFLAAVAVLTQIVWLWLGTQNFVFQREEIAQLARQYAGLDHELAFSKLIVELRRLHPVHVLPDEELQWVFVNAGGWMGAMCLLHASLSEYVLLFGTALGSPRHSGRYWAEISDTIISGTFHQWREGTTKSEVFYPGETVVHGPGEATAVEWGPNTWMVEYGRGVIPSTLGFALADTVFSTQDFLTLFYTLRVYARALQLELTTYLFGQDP
Description: The bound radioactivity has been determined using a Beckman LS 6500 liquid scintillation counter (Beckman Coulter, Brea, CA, USA).
The test compound solutions were prepared by dissolving approximately 10 µmol of the test compound in DMSO to obtain a 10 mM stock solution.
Fresh guinea pig brain cortex was homogenized in ice-cold Tris (50 mM, pH 7.4) containing cold 0.32 M sucrose with a Potter-Elvehjem glass homogenizer. […] The final pellet was resuspended in ice-cold Tris buffer, and frozen at −80 °C. The protein concentration was determined by the method of Bradford [42].
Bound and free radioligand were separated by fast filtration under reduced pressure using a Millipore filter apparatus through Whatman GF 6 glass fiber filters, which were presoaked in a 0.5% poly(ethyleneimine) water solution for 120 min. Each filter paper was rinsed three times with 3 mL of ice-cold Tris buffer (50 mM, pH 7.4), dried at room temperature, and incubated overnight with 3 mL of Ultima Gold MV Scintillation cocktail into pony vials.
The Ki-values were calculated with the program GraphPad Prism® 6.0 (GraphPad Software, San Diego, CA, USA). The Ki-values are given as the mean value ± SD from at least two independent experiments performed in duplicate.

[3] = tested on: NRF2 gene expression in SH-SY5Y cells; test: Real-Time PCR of NRF2 mRNA levels; conditions: 12.5 µM, 12 h; for effect on NRF2 expression (in words): vs DMSO
Description: (§1) Total RNA (500 ng) was primed with hexameric random primers and retrotranscribed into cDNA with M-MLV reverse transcriptase (Thermo Fisher Scientific, Waltham, MA, USA). The normalization of targets’ gene expression was performed against the housekeeping gene RPL13A. Real-Time PCRs were performed by using iQ SYBR Green Supermix and CFX96 Real-Time PCR detection system (Bio-Rad Laboratories, Redmond, WA, USA). The relative expression levels were calculated using the 2^−∆∆CT method. An unpaired T-test was used to determine statistical significance. Values are presented as mean and error bars indicate standard errors (SE). The results are representative of two independent experiments in triplicate.

ABTS radical scavenging = conditions: ABTS 7 mM ethanolic, 45 min, 735 nm
Description: The compounds’ antioxidant capacity was evaluated by bleaching the green colored ethanolic solution of ABTS [41]. Test compounds (300 μL) were diluted as follows: 0.01, 0.025, 0.05, 0.1, and 0.2 mg/mL and added to 2.7 mL of ethanolic solution of ABTS (7 mM). These mixtures were incubated for 45 min at room temperature, and the absorbances were recorded at λ = 735 nm against the ABTS solution. The results were obtained as the percent of inhibition (% IC) of ABTS radical, calculated by the following formula. % IC = [(Abs ABTS − Abs Sample)/Abs ABTS] × 100
Data were expressed as mean value ± SD, and the assay was performed in triplicate.
The % IC was used to determine the IC50 values.

[4] = Hydrogen peroxide scavenging; conditions: H2O2 2 mM, 230 nm
[5] = tested on: SOD1 gene expression in SH-SY5Y cells; test: Real-Time PCR of SOD1 mRNA levels; conditions: 12.5 µM, 12 h; for effect on SOD1 expression (in words): vs DMSO
Description: as §1

[6] = Cytotoxicity, resazurin cell viability test; format: cell-based, human; conditions: human
Description: (§2) Cell viability was tested by using Resazurin (SERVA Electrophoresis GmbH, Heidelberg, Germany), which in metabolically active cells is reduced to Resufurin, a redox indicator, whose fluorescence is proportional to the number of live cells [43, 44].
(§3) The percentage of viability was calculated after subtraction of the background (obtained by killing the cells), on the basis of the ratio between the fluorescence values of the cells incubated with a compound and the fluorescence values of cells incubated with the solvent (1% DMSO). The viability of cells incubated with 1% DMSO was considered to be equivalent to 100%.
(§4) The statistical analysis was carried out with GraphPad Prism® 6.0 (GraphPad Software, Inc, La Jolla, CA, USA) software using an unpaired t-test. p < 0.05 was considered statistically significant. Cytotoxicity concentrations (IC50s) were determined from dose-response curves analyzed by using GraphPad Prism software.

S1R [7] = conditions: cited from earlier work
S2R [8] = biological target: S2R; design: method as in PMID 31319263; conditions: ifenprodil, Table 2 footnote b; cited from earlier work
S1R [9] = test: S1R affinity taken from the literature; format: binding; conditions: ifenprodil, from literature Ki values
Source text: Table 2 Binding affinities towards S1R and S2R, for compounds 5a–o.

SH-SY5Y cells = test: Cytotoxicity, resazurin cell viability test; format: cell-based, human
Description: as §2, §3, §4

Structure (SMILES)	Ki (S2R [1]; read-out: Ki S2R) [nM]	Ki (S1R [2]) [nM]	S2R/S1R selectivity ratio (S1R [2])	Ki (S1R [2]; read-out: Ki S1R) [nM]	IC50 H2O2 [4] [µg/mL]	other results
CC(C(=O)c1ccccc1)N1CCCN(Cc2ccccc2)CC1 (stereo not drawn) [5a, 2-(4-Benzyl-1,4-diazepan-1-yl)-1-phenylpropan-1-one]	108 ± 21	69 ± 14	1.6	–	–	–
CC(C(=O)c1ccccc1)N1CCN(c2ccccc2)CC1 (stereo not drawn) [5b, 2-(4-Phenylpiperazin-1-yl)-1-phenylpropan-1-one]	158 ± 30	–	0.05	2930 ± 1150	–	melting point: 105 to 106 °C
CC(C(=O)c1ccccc1)N(C)CCCCc1ccccc1 (stereo not drawn) [5c, 2-(Methyl(4-phenylbutyl)amino)-1-phenylpropan-1-one]	733 ± 106	–	0.15	4720 ± 1690	–	–
CC(C(=O)c1ccccc1)N1CCN(Cc2ccccc2)CC1 (stereo not drawn) [5d, 2-(4-Benzylpiperazin-1-yl)-1-phenylpropan-1-one]	302 ± 65	8 ± 1	38	–	14.56 ± 0.18 (≈ 47.2 µM)	NRF2 mRNA levels, fold increase compared to DMSO [3]: 1.7 fold; IC50 ABTS (ABTS radical scavenging): 2.854 ± 0.11 µg/mL (≈ 9.25 µM); SOD1 mRNA levels, fold increase compared to DMSO [5]: 1.3 fold; IC50 ([6]; SH-SY5Y cells): 118000 nM
COc1ccc(C(=O)C(C)N2CCCN(Cc3ccccc3)CC2)cc1 (stereo not drawn) [5e, 2-(4-Benzyl-1,4-diazepan-1-yl)-1-(4-methoxyphenyl)propan-1-one]	–	12 ± 2	8.1	–	12.65 ± 0.21 (≈ 35.9 µM)	effect on NRF2 expression (in words) [3]: did not change its expression significantly; Ki (S2R [1]): 97 ± 17 nM; IC50 ABTS (ABTS radical scavenging): 2.495 ± 0.09 µg/mL (≈ 7.08 µM); effect on SOD1 expression (in words) [5]: did not significantly alter; IC50 ([6]; SH-SY5Y cells): 74000 nM
COc1ccc(C(=O)C(C)N2CCN(c3ccccc3)CC2)cc1 (stereo not drawn) [5f, 2-(4-Phenylpiperazin-1-yl)-1-(4-methoxyphenyl)propan-1-one]	989 ± 337	–	0.53	1860 ± 987	–	melting point: 117 to 119 °C
COc1ccc(C(=O)C(C)N(C)CCCCc2ccccc2)cc1 (stereo not drawn) [5g, 1-(4-Methoxyphenyl)-2-(methyl(4-phenylbutyl)amino)propan-1-one]	386 ± 110	–	3.3	117 ± 18	–	–
COc1ccc(C(=O)C(C)N2CCN(Cc3ccccc3)CC2)cc1 (stereo not drawn) [5h, 2-(4-Benzylpiperazin-1-yl)-1-(4-methoxyphenyl)propan-1-one]	–	1.4 ± 0.2	–	–	466.24 ± 1.36 (≈ 1380 µM)	effect on NRF2 expression (in words) [3]: significant decrease; Ki (S2R [1]): 84 ± 31 nM; effect on SOD1 expression (in words) [5]: dramatically reduced; IC50 ([6]; SH-SY5Y cells): 117000 nM
CC(C(=O)c1ccc(O)cc1)N1CCCN(Cc2ccccc2)CC1 (stereo not drawn) [5i, 2-(4-Benzyl-1,4-diazepan-1-yl)-1-(4-hydroxyphenyl)propan-1-one]	–	19 ± 3	1.1	–	13.11 ± 0.24 (≈ 38.7 µM)	NRF2 mRNA levels, fold increase compared to DMSO [3]: 2.8 fold; Ki (S2R [1]): 22 ± 4 nM; IC50 ABTS (ABTS radical scavenging): 2.603 ± 0.09 µg/mL (≈ 7.69 µM); effect on SOD1 expression (in words) [5]: did not significantly alter; IC50 ([6]; SH-SY5Y cells): 294000 nM
CC(C(=O)c1ccc(O)cc1)N(C)CCCCc1ccccc1 (stereo not drawn) [5j, 1-(4-Hydroxyphenyl)-2-(methyl(4-phenylbutyl)amino)propan-1-one]	–	–	0.38	121 ± 22	–	Ki (S2R [1]): 45 ± 4 nM
CC(C(=O)c1ccc(O)cc1)N1CCN(Cc2ccccc2)CC1 (stereo not drawn) [5k, 2-(4-Benzylpiperazin-1-yl)-1-(4-hydroxyphenyl)propan-1-one]	129 ± 23	19 ± 2	6.8	–	436.43 ± 1.17 (≈ 1350 µM)	effect on NRF2 expression (in words) [3]: significant decrease; effect on SOD1 expression (in words) [5]: dramatically reduced; melting point: 58 to 59 °C; IC50 ([6]; SH-SY5Y cells): 132000 nM
CC(C(=O)c1ccc(O)cc1)N1CCN(c2ccccc2)CC1 (stereo not drawn) [5l, 2-(4-Phenylpiperazin-1-yl)-1-(4-hydroxyphenyl)propan-1-one]	147 ± 17	–	0.18	785 ± 226	–	melting point: 163 to 165 °C
CC(C(O)c1ccccc1)N(C)CCCCc1ccccc1 (stereo not drawn) [5m, 2-(Methyl(4-phenylbutyl)amino)-1-phenylpropan-1-ol]	–	37 ± 10	0.81	–	–	Ki (S2R [1]): 30 ± 8 nM
COc1ccc(C(O)C(C)N(C)CCCCc2ccccc2)cc1 (stereo not drawn) [5n, 1-(4-Methoxyphenyl)-2-(methyl(4-phenylbutyl)amino)propan-1-ol]	479 ± 93	38 ± 9	13	–	–	–
COc1ccc(C(O)C(C)N2CCCN(Cc3ccccc3)CC2)cc1 (stereo not drawn) [5o, 2-(4-Benzyl-1,4-diazepan-1-yl)-1-(4-methoxyphenyl)propan-1-ol]	128 ± 26	–	32	4.2 ± 0.6	12.13 ± 0.25 (≈ 34.2 µM)	effect on NRF2 expression (in words) [3]: significant decrease; IC50 ABTS (ABTS radical scavenging): 2.481 ± 0.05 µg/mL (≈ 7 µM); effect on SOD1 expression (in words) [5]: dramatically reduced; IC50 ([6]; SH-SY5Y neuroblastoma cells): 118000 nM
COc1cc2c(cc1OC)C(=O)C(CC1CCN(Cc3ccccc3)CC1)C2 (stereo not drawn) [Donepezil]	–	–	–	–	–	Ki (S1R [7]; donepezil): 14.6 nM
O=C(CCCN1CCC(O)(c2ccc(Cl)cc2)CC1)c1ccc(F)cc1 [Haloperidol, reference compound]	–	–	–	–	–	effect on NRF2 expression (in words) [3]: did not cause significant changes; effect on SOD1 expression (in words) [5]: did not cause significant changes; IC50 ([6]; SH-SY5Y neuroblastoma cells): 23000 nM
CC(C(O)c1ccc(O)cc1)N1CCC(Cc2ccccc2)CC1 (stereo not drawn) [Ifenprodil]	–	–	–	–	–	Ki (S2R [8]): 98 ± 34 nM; Ki (S1R [7]; ifenprodil, Table 2 footnote b): 125 ± 24 nM; S2R/S1R selectivity ratio (S1R [9]): 0.75
CCCN(CCC)CCc1ccc(OC)c(OCCc2ccccc2)c1 [NE100, reference compound]	–	–	–	–	–	IC50 (SH-SY5Y cells): 49000 nM
Fc1ccc(-n2cc(CCCCN3CCC4(CC3)OCc3ccccc34)c3ccccc32)cc1 [Siramesine, reference compound]	–	–	–	–	–	IC50 ([6]; SH-SY5Y neuroblastoma cells): 2000 nM
Cc1c(C)c2c(c(C)c1O)CCC(C)(C(=O)O)O2 (stereo not drawn) [Trolox, 6-hydroxy-2,5,7,8-tetramethylchroman-2-carboxylic acid, reference compound]	–	–	–	–	15.69 ± 0.69 (≈ 62.7 µM)	IC50 ABTS (ABTS radical scavenging): 2.365 ± 0.19 µg/mL (≈ 9.45 µM)
